Some results are limits rather than exact numbers.

The source of these data is ChEMBL document CHEMBL3046173, “Synthesis, structure, anticancer, and antioxidant activity of para-xylyl linked bis-benzimidazolium salts and respective dinuclear Ag(I) N-heterocyclic carbene complexes (Part-II)” (Med Chem Res, 2013).

The test system of one test is HCT-116. Briefly: Cytotoxicity against Homo sapiens (human) HCT116 cells assessed as growth inhibition after 48 hr by MTT assay. Type of test: functional, cell-based. The following applies: for IC50: HCT-116, 48 h.
Test [1] concerns Radical scavenging activity. Briefly: Antioxidant activity assessed as inhibition of DPPH free radicals at 400 uM after 30 min by microplate reader analysis relative to control. Type of test: functional. For orientation: Loss of DPPH colour is used to gauge radical scavenging.

For the compound `c1ccc2[nH]cnc2c1` [BENZIMIDAZOLE], in the test on HCT-116, the “growth inhibition (GI)” value is “Dose-dependent effect” and the IC50 (commonly the midpoint of a concentration-inhibition curve) is above 200 µM. Further, the inhibition (usually the relative decrease from the control value, in per cent) in test [1] was determined as 21%.

Turning to `CCCCCCCCn1c[n+](Cc2ccc(C[n+]3cn(CCCCCCCC)c4ccccc43)cc2)c2ccccc21`, in the test with HCT-116, the “growth inhibition (GI)” value is “Dose-dependent effect” and the IC50 is 0.9 µM. Also, the inhibition in test [1] turned out to be 17.9%.

Regarding `CCCCCCCCCn1c[n+](Cc2ccc(C[n+]3cn(CCCCCCCCC)c4ccccc43)cc2)c2ccccc21`, in the test on HCT-116, the “growth inhibition (GI)” value is “Dose-dependent effect” and the IC50 came out at 2.8 µM. The inhibition in test [1] was 14.8%.

Consider `O=c1[nH]cc(F)c(=O)[nH]1` [FLUOROURACIL], for which, in the test on HCT-116, the “growth inhibition (GI)” value is “Dose-dependent effect” and the IC50 came out at 19.2 µM.

In the case of `CCCCCCCCCCn1c[n+](Cc2ccc(C[n+]3cn(CCCCCCCCCC)c4ccccc43)cc2)c2ccccc21`, in the test on HCT-116, the “growth inhibition (GI)” value is “Dose-dependent effect” and the IC50 turned out to be 3.3 µM. Moreover, in test [1], the inhibition turned out to be 13.7%.

In the case of `O=C(O)c1cc(O)c(O)c(O)c1`, the inhibition in test [1] is 77.7%.
